According to PubChem BioAssay AID248 (DTP/NCI, 2004):
Where “and” joins values, the source holds several entries; their conditions need not be identical. Identical values can stand only once. Toxic doses and inconclusive results are not listed. Cut-off read from the data, not from the text of the source: active = T/C of 150% or more; inactive = T/C below 125%. Square brackets hold non-standard residues; d marks the D form. Peptide text beside a SMILES is read from it. * marks the point of attachment. ξ: configuration not given here. Cbz = O=C(OCc1ccccc1)*; ξV = CC(C)C(N)C(=O)O

System: L1210 leukemia ip in BDF1 mice, survival T/C
Test: NCI In Vivo Anticancer Drug Screen. Data for tumor model L1210 Leukemia (intraperitoneal) in B6D2F1 (BDF1) mice
Conditions: endpoint: mean survival time, higher = longer survival
How it was run: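 Tumor cells were implanted, animals were treated, and survival was followed. The result divides the treated measurement by the vehicle-control measurement.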

[1] = dose: 100.0 mg/kg/injection, schedule: Q04DX003 (ip), vehicle: Klucel (hydroxypropylcellulose) (HPC)
[2] = dose: 200.0 mg/kg/injection, schedule: Q04DX003 (ip), vehicle: Klucel (hydroxypropylcellulose) (HPC)
[3] = dose: 400.0 mg/kg/injection, schedule: Q04DX003 (ip), vehicle: Klucel (hydroxypropylcellulose) (HPC)
[4] = dose: 100.0 mg/kg/injection, schedule: Q04DX002 (ip), vehicle: Klucel (hydroxypropylcellulose) (HPC)
[5] = dose: 200.0 mg/kg/injection, schedule: Q04DX002 (ip), vehicle: Klucel (hydroxypropylcellulose) (HPC)
[6] = dose: 100.0 mg/kg/injection, schedule: Q01DX001 (ip), vehicle: saline
[7] = dose: 25.0 mg/kg/injection, schedule: Q01DX009 (ip), vehicle: Klucel (hydroxypropylcellulose) (HPC)
[8] = dose: 50.0 mg/kg/injection, schedule: Q01DX009 (ip), vehicle: Klucel (hydroxypropylcellulose) (HPC)
[9] = dose: 100.0 mg/kg/injection, schedule: Q01DX009 (ip), vehicle: Klucel (hydroxypropylcellulose) (HPC)
[10] = dose: 200.0 mg/kg/injection, schedule: Q01DX009 (ip), vehicle: Klucel (hydroxypropylcellulose) (HPC)
[11] = dose: 400.0 mg/kg/injection, schedule: Q01DX009 (ip), vehicle: Klucel (hydroxypropylcellulose) (HPC)
[12] = dose: 100.0 mg/kg/injection, schedule: Q04DX003 (ip), vehicle: saline
[13] = dose: 200.0 mg/kg/injection, schedule: Q04DX003 (ip), vehicle: saline
[14] = dose: 400.0 mg/kg/injection, schedule: Q04DX003 (ip), vehicle: saline
[15] = dose: 100.0 mg/kg/injection, schedule: Q01DX001 (ip), vehicle: saline with Tween-80
[16] = dose: 200.0 mg/kg/injection, schedule: Q01DX001 (ip), vehicle: saline with Tween-80

Measured: T/C

COc1ccc(NC(=O)N(CCCl)N=O)cc1
inactive: dose: 0.12 mg/kg/injection, schedule: Q01DX Z (ip), vehicle: carboxymethylcellulose (CMC) 112 % of control | dose: 1.25 mg/kg/injection, schedule: Q01DX Z (ip), vehicle: carboxymethylcellulose (CMC) 123 % of control | dose: 15.0 mg/kg/injection, schedule: Q01DX Z (ip), vehicle: carboxymethylcellulose (CMC) 120 % of control | dose: 20.0 mg/kg/injection, schedule: Q01DX Z (ip), vehicle: carboxymethylcellulose (CMC) 93 % of control | dose: 79.2 mg/kg/injection, schedule: Q01DX001 (ip), vehicle: carboxymethylcellulose (CMC) 105 % of control | dose: 120.0 mg/kg/injection, schedule: Q01DX001 (ip), vehicle: saline 111 % of control
active: dose: 4.4 mg/kg/injection, schedule: Q01DX015 (ip), vehicle: saline 200 % of control | dose: 4.4 mg/kg/injection, schedule: Q01DX Z (ip), vehicle: carboxymethylcellulose (CMC) 192 % of control | dose: 5.0 mg/kg/injection, schedule: Q01DX Z (ip), vehicle: carboxymethylcellulose (CMC) 160 % of control | dose: 6.6 mg/kg/injection, schedule: Q01DX015 (ip), vehicle: saline 224 % of control | dose: 6.6 mg/kg/injection, schedule: Q01DX Z (ip), vehicle: carboxymethylcellulose (CMC) 222 % of control | dose: 9.9 mg/kg/injection, schedule: Q01DX001 (ip), vehicle: carboxymethylcellulose (CMC) 160 % of control | dose: 10.0 mg/kg/injection, schedule: Q01DX015 (ip), vehicle: saline 196 % of control | dose: 10.0 mg/kg/injection, schedule: Q01DX Z (ip), vehicle: carboxymethylcellulose (CMC) 187 % of control | dose: 15.0 mg/kg/injection, schedule: Q01DX015 (ip), vehicle: saline 195 % of control | dose: 19.8 mg/kg/injection, schedule: Q01DX001 (ip), vehicle: carboxymethylcellulose (CMC) 166 % of control | dose: 39.6 mg/kg/injection, schedule: Q01DX001 (ip), vehicle: carboxymethylcellulose (CMC) 206 % of control | dose: 60.0 mg/kg/injection, schedule: Q01DX001 (ip), vehicle: saline 158 % of control | dose: 240.0 mg/kg/injection, schedule: Q01DX001 (ip), vehicle: saline 156 % of control

CC(=O)C1=C(c2ccccc2)C(=O)C(C(C)=O)=C(c2ccccc2)C1=O
inactive: [1] 100 % of control | [2] 100 % of control | [3] 96 % of control

Oc1c(CNCCCN2CCCC2)cc(Cl)c2cccnc12
inactive: dose: 100.0 mg/kg/injection, schedule: Q04DX002 (ip), vehicle: saline 97 % of control | dose: 200.0 mg/kg/injection, schedule: Q04DX002 (ip), vehicle: saline 97 % of control

O=C(COc1cc(Cl)c(Cl)cc1Cl)OC(=O)COc1cc(Cl)c(Cl)cc1Cl
inactive: [4] 107 % of control | [5] 96 % of control

NC(=O)NNC1=CC(=O)CCO1
inactive: [6] 107 % of control | dose: 200.0 mg/kg/injection, schedule: Q01DX001 (ip), vehicle: saline 106 % of control | dose: 400.0 mg/kg/injection, schedule: Q01DX001 (ip), vehicle: saline 104 % of control

O=C(O)c1cccnc1
inactive: [7] 103 % of control | dose: 25.0 mg/kg/injection, schedule: Q04DX003 (ip), vehicle: Klucel (hydroxypropylcellulose) (HPC) 91 % of control | [8] 100 % of control | dose: 50.0 mg/kg/injection, schedule: Q04DX003 (ip), vehicle: Klucel (hydroxypropylcellulose) (HPC) 89 % of control | [9] 96 % of control | [1] 100 % of control | [10] 95 % of control | [2] 91 % of control | [3] 107 % of control

O=C(NCCCl)NC1CCCc2ccccc21 (configuration not stated)
inactive: dose: 6.25 mg/kg/injection, schedule: Q01DX009 (ip), vehicle: Klucel (hydroxypropylcellulose) (HPC) 95 % of control | dose: 12.5 mg/kg/injection, schedule: Q01DX009 (ip), vehicle: Klucel (hydroxypropylcellulose) (HPC) 94 % of control | [7] 90 % of control | [8] 92 % of control | dose: 100.0 mg/kg/injection, schedule: Q01DX001 (ip), vehicle: Klucel (hydroxypropylcellulose) (HPC) 105 % of control | dose: 200.0 mg/kg/injection, schedule: Q01DX001 (ip), vehicle: Klucel (hydroxypropylcellulose) (HPC) 91 % of control

CCCCCCCCCCCCCCCCCCNC(=O)Nc1cccc(NC(C)=O)c1
inactive: [9] 91 % of control | [10] 88 % of control | [11] 98 % of control

COC(=O)C(NC(=O)CNC(=O)CNC(=O)OCc1ccccc1)C(C)C (stereo not drawn) (Cbz-Gly-Gly-[ξV]-OMe)
inactive: [1] 96 % of control | [2] 99 % of control | [3] 92 % of control

OCC1OC(OC2CCCCC2)C(O)C(O)C1O (configuration not stated)
inactive: [12] 100 % of control | [13] 96 % of control | [14] 102 % of control

C=C1C(=O)OC2CCC(O)C12 (configuration not stated)
inactive: dose: 25.0 mg/kg/injection, schedule: Q01DX001 (ip), vehicle: saline 94 % of control | dose: 50.0 mg/kg/injection, schedule: Q01DX001 (ip), vehicle: saline 108 % of control | [6] 105 % of control

COc1ccc(/C=N/CCl)cc1
inactive: dose: 100.0 mg/kg/injection, schedule: Q04DX003 (ip), vehicle: saline with Tween-80 110 % of control | dose: 200.0 mg/kg/injection, schedule: Q04DX003 (ip), vehicle: saline with Tween-80 92 % of control | dose: 400.0 mg/kg/injection, schedule: Q04DX003 (ip), vehicle: saline with Tween-80 96 % of control

Nc1ccc(NC=O)c(Cl)c1
inactive: [12] 102 % of control | [13] 108 % of control | [14] 102 % of control

COC(=O)c1c(C(=O)OC)c2c(-c3ccccc3)cc3cccc1n32
inactive: [1] 94 % of control | [2] 102 % of control | [3] 94 % of control

Oc1cc(N2CC2)c(O)cc1N1CC1
inactive: dose: 0.5 mg/kg/injection, schedule: Q01DX009 (ip), vehicle: saline 118 % of control
active: dose: 0.3 mg/kg/injection, schedule: Q01DX009 (ip), vehicle: saline 154 % of control

CC12OC(=O)CC1CC(=O)O2 (configuration not stated)
inactive: dose: 100.0 mg/kg/injection, schedule: Q01DX001 (ip), vehicle: saline sonified 101 % of control | dose: 100.0 mg/kg/injection, schedule: Q01DX009 (ip), vehicle: saline sonified 109 % of control | dose: 200.0 mg/kg/injection, schedule: Q01DX001 (ip), vehicle: saline sonified 95 % of control | dose: 200.0 mg/kg/injection, schedule: Q01DX009 (ip), vehicle: saline sonified 105 % of control | dose: 400.0 mg/kg/injection, schedule: Q01DX001 (ip), vehicle: saline sonified 92 % of control | dose: 400.0 mg/kg/injection, schedule: Q01DX009 (ip), vehicle: saline sonified 102 % of control

CCOC(=O)NCC(CCN1CCCCC1)(c1cccc2ccccc12)C(C)C (configuration not stated)
inactive: [1] 100 % of control | [2] 88 % of control

CCOC(=O)c1nc[nH]c1C
inactive: [9] 103 % of control | [4] 98 % of control and 101 % of control | [1] 103 % of control | [10] 100 % of control and 120 % of control | [5] 100 % of control and 103 % of control | [2] 103 % of control | [11] 103 % of control and 119 % of control | dose: 400.0 mg/kg/injection, schedule: Q04DX002 (ip), vehicle: Klucel (hydroxypropylcellulose) (HPC) 103 % of control | [3] 98 % of control

CCCCCCCCCCCCCC(C1CCCCC1)C1CCCCC1
inactive: [15] 113 % of control | [16] 93 % of control | dose: 400.0 mg/kg/injection, schedule: Q01DX001 (ip), vehicle: saline with Tween-80 95 % of control

Cc1ccc2c(c1)CN(Cc1ccccc1)CO2
inactive: dose: 75.0 mg/kg/injection, schedule: Q01DX009 (ip), vehicle: saline 89 % of control | dose: 150.0 mg/kg/injection, schedule: Q01DX009 (ip), vehicle: saline 94 % of control | [2] 103 % of control | dose: 300.0 mg/kg/injection, schedule: Q01DX009 (ip), vehicle: saline 102 % of control | [3] 97 % of control

COc1cc(CCNC(=O)Cc2ccc(OCc3ccccc3)c(OC)c2)ccc1OCc1ccccc1
inactive: dose: 100.0 mg/kg/injection, schedule: Q01DX009 (ip), vehicle: saline with Tween-80 89 % of control | dose: 200.0 mg/kg/injection, schedule: Q01DX009 (ip), vehicle: saline with Tween-80 101 % of control | dose: 400.0 mg/kg/injection, schedule: Q01DX009 (ip), vehicle: saline with Tween-80 94 % of control

CCCC(/C=N/Nc1ccc([N+](=O)[O-])cc1[N+](=O)[O-])=C\c1ccccc1
inactive: [15] 88 % of control | [16] 88 % of control
